Results taken from publication PMC10584170, “Machine learning-based phenotypic imaging to characterise the targetable biology of Plasmodium falciparum male gametocytes for the development of transmission-blocking antimalarials” (PLOS Pathogens, 2023).
Where two headings read alike, the source gives them in different places.

How the values were obtained:
[1] = system: P. falciparum male gametocytes; assay: P. falciparum Dual Gamete Formation Assay (PfDGFA), male readout (exflagellation); format: cell-based, Plasmodium falciparum NF54; settings: for IC50: this study, read-out: Pf DGFA IC50 MALE
Outline: (§1)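 Read-outs are automated image counts of exflagellation centres (brightfield, 10 frames over 1 s) and Pfs25-positive female gametes (Cy3 fluorescence).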

[2] = system: P. falciparum female gametocytes; assay: P. falciparum Dual Gamete Formation Assay (PfDGFA), female readout (Pfs25-positive female gametes); format: cell-based, Plasmodium falciparum NF54; settings: for IC50: this study, read-out: Pf DGFA IC50 FEM
Outline: as §1

[3] = system: P. falciparum male gametocytes; assay: PhIDDLI screening assay, 24 h preincubation at 10xIC50, tubulin/DAPI imaging of male gametogenesis; format: cell-based, Plasmodium falciparum NF54; settings: approximately 10xIC50, fixed 20 min post-induction
Experimental: Mature gametocytes were treated for 24h with approximately 10xIC50 of test compounds or DMSO as a solvent control. Male gametogenesis was then induced by lowering the temperature from 37°C to ~20°C and adding xanthurenic acid. 20min later, when male gametogenesis (exflagellation) could be expected to peak, all samples were fixed. A sample of non-induced DMSO-treated gametocytes was fixed with 4% paraformaldehyde to provide an unactivated gametocyte control for comparison. The cells were then processed for immunofluorescence using an antibody against alpha-tubulin II and DNA staining with 4′,6-diamidino-2-phenylindole (DAPI) and visualised by fluorescence microscopy. Tubulin-bright cells from each treated sample were imaged and captured at random.
Cells were identified using a semi-automated pipeline established in the ICY BioImageAnalysis (https://icy.bioimageanalysis.org/) protocols module. Images and accompanying bounding boxes representing the outlines of identified cells were then passed to the PhIDDLI pipeline. PhIDDLI consists of several open source image processing and AI/ML modules connected for seamless processing, clustering and visualisation of cellular phenotypes (Fig 3A). […] To focus on the overall cellular phenotype rather than potentially confounding variable immunostaining intensities between experimental replicates, cells were transformed so that the range of staining intensities for each channel were normalised to fall between a 0–255 pixel intensity value. Then, using the Albumentations module (https://albumentations.ai/) to augment the dataset and control for cells in different orientations, each extracted cell image was rotated 90, 180 and 270 degrees and mirrored so that each cell was represented eight different times in the dataset. The augmented images were then passed to the EffcientNet-B1 module (https://github.com/tensorflow/tpu/tree/master/models/official/efficientnet) (a pretrained neural network developed for image processing) which extracted 1,000 distinct numerical features from each individual cell image. The EfficientNet-B1 was selected from amongst the other EfficientNet models due to its input image size (240 pixels) best matching the size of the individual cell images in the dataset, therefore ensuring maximal input data whilst allowing acceptable computation time on a desktop computer. […]
Mature gametocyte cultures were divided into 100 μl “microcultures” in pre-warmed 1.5 ml tubes also containing 100 μl complete culture medium with test compounds at a final concentration of 10xIC50 or 0.5% DMSO as a solvent control. Tubes were gassed and incubated at 37°C for 24 h. The entire compound library was screened once, spread over four different experiments, each with two DMSO control tubes. An 8% formaldehyde solution was prepared by diluting 16% methanol-free formaldehyde in an equal volume of phosphate-buffered saline (PBS). In each experiment, one DMSO control tube was fixed with equal volume of 8% formaldehyde (4% final concentration) at 37°C to provide an “unactivated” gametocyte control. Gametogenesis was then triggered in the remaining DMSO control tube and all compound tubes by adding 10 μl ookinete medium, and they were immediately incubated at room temperature. After 20 min (when exflagellation is maximal), all remaining tubes were fixed for 30 min.
100 μl of the fixed cell suspensions were added to wells of a 24 well plate containing 1ml PBS and a poly-l-lysine-coated glass coverslip.

[4] = system: P. falciparum female gametocytes; assay: P. falciparum Female Gametocyte Activation Assay (PfFGAA); format: cell-based, Plasmodium falciparum; settings: Mean TOX HepG2 over FGAA IC50; GREEN = >10-fold; RED = <10-fold
[5] = system: P. falciparum female gametocytes; parameters: method as in Miguel-Blanco et al 2017; settings: ref Miguel-Blanco et al 2017; read-out: Pf female gametogenesis FGAA IC50; cited from earlier work
HepG2 cells [6] = settings: cited from earlier work; for FGAA TOX50 HepG2: HepG2 value reported with the FGAA screen, ref Miguel-Blanco et al 2017; for ODA TOX50 HepG2: HepG2 value reported with the ODA screen, ref Delves et al 2019
HepG2 cells [7] = assay: HepG2 cytotoxicity counter-screen; settings: for Mean TOX: mean of the HepG2 TOX50 values

| Structure (SMILES) | Cytotox ratio Pf Male [1] | IC50 [1] | Cytotox ratio Pf Female [2] | IC50 [2] | Cellular phenotype of male gametocytes [3] | Cytotox ratio Pf FGAA [4] | IC50 [5] | FGAA TOX50 HepG2 (HepG2 cells [6]) | Mean TOX (HepG2 cells [7]) | ODA TOX50 HepG2 (HepG2 cells [6]) | DGFA Tox50 HepG2 (HepG2 cells [7]; HepG2 value reported with the DGFA screen) |
| --- | --- | --- | --- | --- | --- | --- | --- | --- | --- | --- | --- |
| CC(C)(CNC(=O)[C@H]1CCCCN1)c1nc(-c2ccc(Cl)c(O)c2)c(-c2ccncc2)[nH]1.Cl [TC04] | 24.9 | 1.63 µM | 39.8 | 1.02 µM | unactivated phenotype consistent with total arrest of gametogenesis | 76.7 | 0.53 µM | 28.96 µM | 40.64 µM | – | – |
| CC(C)(CN)c1nc(-c2ccc(Br)c(O)c2)c(-c2ccncc2)[nH]1.Cl [TC13] | 43.5 | 1.48 µM | 112.9 | 0.57 µM | unactivated phenotype consistent with total arrest of gametogenesis | 76.6 | 0.84 µM | 45.82 µM | 64.38 µM | 47.315 µM | 100 µM |
| Cl.NCC1(c2nc(-c3ccc(Cl)c(O)c3)c(-c3ccncc3)[nH]2)CCCCC1 [TC41] | 26.9 | 0.85 µM | 53.2 | 0.43 µM | unactivated phenotype consistent with total arrest of gametogenesis | 108.8 | 0.21 µM | 11.9 µM | 22.85 µM | 46.774 µM | – |
